Measurements as given in the supplement of paper PMC13207355.

Legend:
Settings in all cases: exposure time: 72 h
E21 [1] = patient-derived glioblastoma stem cells of mesenchymal subtype; test: phenotypic distance (Euclidean, principal components) from DMSO controls (arbitrary units); higher = stronger morphological change
E28 [2] = patient-derived glioblastoma stem cells of classical subtype; test: as above
FT3469 [3] = normal neural stem cell line; test: as above
E31 [4] = patient-derived glioblastoma stem cells of proneural subtype; test: as above
E57 [5] = patient-derived glioblastoma stem cells of mesenchymal subtype; test: as above
E13 [6] = patient-derived glioblastoma stem cells of classical subtype; test: as above
E34 [7] = patient-derived glioblastoma stem cells of proneural subtype; test: as above
E21 [8] = test: surviving fraction (nuclei count normalised to DMSO); higher = more cells surviving (less toxic)
E28 [9] = test: as above
FT3469 [10] = test: as above
E31 [11] = test: as above
E57 [12] = test: as above
E13 [13] = test: as above
E34 [14] = test: as above
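Throughout, for phenotypic distance (Euclidean, principal components) from DMSO controls: cell Painting imaging in 384-well plates, CellProfiler features reduced to at least 20 principal components, Euclidean distance versus same-plate DMSO vehicle wells (0.1% v/v), median over six images per well.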
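Throughout, for surviving fraction (nuclei count normalised to DMSO): nuclei counted by high-content imaging of Hoechst-stained cells in laminin-coated 384-well plates, relative to 0.1% DMSO vehicle wells, with staurosporine as cell-death control.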

O=C(/C=C/c1ccc([N+](=O)[O-])cc1)/C=C1/C(=O)Nc2ccc(F)cc21 [APIO-EE-07]
Settings	phenotypic distance	surviving fraction
E13 [6], 2.7 nM	0.638	–
E13 [6], 8.2 nM	0.674	–
E13 [6], 24.7 nM	0.47	–
E13 [6], 74.1 nM	0.494	–
E13 [6], 222.2 nM	0.491	–
E13 [6], 666.7 nM	0.644	–
E13 [6], 2000 nM	0.888	–
E13 [13], 2.7 nM	–	0.978
E13 [13], 8.2 nM	–	0.955
E13 [13], 24.7 nM	–	0.964
E13 [13], 74.1 nM	–	1.0673
E13 [13], 222.2 nM	–	0.994
E13 [13], 666.7 nM	–	0.9741
E13 [13], 2000 nM	–	0.841
E21 [1], 2.7 nM	0.833	–
E21 [1], 8.2 nM	0.648	–
E21 [1], 24.7 nM	0.526	–
E21 [1], 74.1 nM	2.82	–
E21 [1], 222.2 nM	0.86	–
E21 [1], 666.7 nM	0.927	–
E21 [1], 2000 nM	2.33	–
E21 [8], 2.7 nM	–	0.996
E21 [8], 8.2 nM	–	0.929
E21 [8], 24.7 nM	–	1.04
E21 [8], 74.1 nM	–	0.991
E21 [8], 222.2 nM	–	0.989
E21 [8], 666.7 nM	–	1.03
E21 [8], 2000 nM	–	0.642
E28 [2], 2.7 nM	0.693	–
E28 [2], 8.2 nM	0.629	–
E28 [2], 24.7 nM	0.459	–
E28 [2], 74.1 nM	0.507	–
E28 [2], 222.2 nM	1.59	–
E28 [2], 666.7 nM	0.58	–
E28 [2], 2000 nM	3.56	–
E28 [9], 2.7 nM	–	1.1
E28 [9], 8.2 nM	–	0.992
E28 [9], 24.7 nM	–	1
E28 [9], 74.1 nM	–	1.04
E28 [9], 222.2 nM	–	0.944
E28 [9], 666.7 nM	–	1.054
E28 [9], 2000 nM	–	0.293
E31 [4], 2.7 nM	0.66	–
E31 [4], 8.2 nM	0.527	–
E31 [4], 24.7 nM	0.585	–
E31 [4], 74.1 nM	0.697	–
E31 [4], 222.2 nM	0.744	–
E31 [4], 666.7 nM	0.876	–
E31 [4], 2000 nM	1.95	–
E31 [11], 2.7 nM	–	0.971
E31 [11], 8.2 nM	–	1.07
E31 [11], 24.7 nM	–	0.973
E31 [11], 74.1 nM	–	0.943
E31 [11], 222.2 nM	–	0.958
E31 [11], 666.7 nM	–	0.951
E31 [11], 2000 nM	–	0.448
E34 [7], 2.7 nM	0.787	–
E34 [7], 8.2 nM	0.702	–
E34 [7], 24.7 nM	0.648	–
E34 [7], 74.1 nM	0.775	–
E34 [7], 222.2 nM	0.511	–
E34 [7], 666.7 nM	1.19	–
E34 [7], 2000 nM	1.13	–
E34 [14], 2.7 nM	–	0.95
E34 [14], 8.2 nM	–	0.991
E34 [14], 24.7 nM	–	1
E34 [14], 74.1 nM	–	0.971
E34 [14], 222.2 nM	–	0.979
E34 [14], 666.7 nM	–	0.87
E34 [14], 2000 nM	–	0.731
E57 [5], 2.7 nM	0.81	–
E57 [5], 8.2 nM	0.581	–
E57 [5], 24.7 nM	0.418	–
E57 [5], 74.1 nM	0.557	–
E57 [5], 222.2 nM	0.584	–
E57 [5], 666.7 nM	0.739	–
E57 [5], 2000 nM	2.46	–
E57 [12], 2.7 nM	–	0.99
E57 [12], 8.2 nM	–	1.01
E57 [12], 24.7 nM	–	1.03
E57 [12], 74.1 nM	–	1.04
E57 [12], 222.2 nM	–	0.999
E57 [12], 666.7 nM	–	1.02
E57 [12], 2000 nM	–	0.791
FT3469 [3], 2.7 nM	0.776	–
FT3469 [3], 8.2 nM	0.699	–
FT3469 [3], 24.7 nM	2.24	–
FT3469 [3], 74.1 nM	1.29	–
FT3469 [3], 222.2 nM	0.569	–
FT3469 [3], 666.7 nM	0.6	–
FT3469 [3], 2000 nM	2.12	–
FT3469 [10], 2.7 nM	–	0.932
FT3469 [10], 8.2 nM	–	1.01
FT3469 [10], 24.7 nM	–	1.04
FT3469 [10], 74.1 nM	–	1.09
FT3469 [10], 222.2 nM	–	0.975
FT3469 [10], 666.7 nM	–	0.982
FT3469 [10], 2000 nM	–	0.775
